Measurements as given in patent publication US7101854B2, “Tetrapeptide stimulating the functional activity of hepatocytes, pharmacological substance on its basis and the method of its application” (Sankt-Peterburgskaya Obschestvennaya Organizatsiya …, priority 2000, dated 2006).
Residues, ends and D or L forms follow the SMILES beside them.

Columns and labels:
hepatoma-27 = assay: Growth of transplanted hepatoma-27 in rats; format: in vivo; conditions: for Mean life span (days after the tumour transplantation): rats with hepatoma-27; for Tumour growth: tetrapeptide 1 μg/kg s.c. 10 days, stabilised since 30th day, cyclophosphamide 100 μg/kg i.p. once, from 16th day; for Animals with complete tumour resolution: tetrapeptide: days 16, 25, 43, cyclophosphamide: days 28, 32, 41 after transplantation
Description: The study was performed on 37 female rats weighing 150-200 g with hepatoma-27 subcutaneously transplanted to the right femur region. […] Cyclophosphamide administered once intraperitoneally in the dose of 100 μg/kg was employed as a positive control. The tumour dynamics and animals' survival rate were assessed in experiments.

[1] = system: rats with acute toxic hepatitis; assay: Acute toxic hepatitis induced by CCl4 in rats
Description: Freshly made solution heated to 30–35° C. was introduced into the femoral region at the ratio of 0.5 ml per 100 g of the animal's body weight, daily for 5 days.
In 5 days after the tetrapeptide administration completion, the rats were euthanaised and the investigation results were assessed.
In 20 days after the experiment onset, the rats were euthanaised.
The control animals received natural saline injections according to the same plans.
The state of the animals' liver was assessed by the data of biochemical analysis defining the concentration of protein, bilirubin, cholesterol, alanine aminotransferase (ALT) and aspartate aminotransferase (AST).
Tissue bits were fixed in 10% formalin solution in a 0.1M sodium phosphate buffer (pH 7.4). The histological preparations were stained with haematoxylin-eosin, staining for fat was performed with Sudan-3 and for glycogen—according to McManus.

[2] = system: hepatocyte monolayer culture of rats of various ages; assay: Intensity of protein synthesis ([3H]-leucin inclusion) in monolayer hepatocyte culture; format: cell-based; conditions: 0.005 μg/ml, 4 hours
Description: The intensity of protein synthesis was investigated in a hepatocyte culture of rats aged 4, 8 and 18 months.
To isolate hepatocytes, rat liver was perfused with calcium-free Hanks' solution added 0.5 mM of EDTA and then 0.05% collagenase solution in Medium 199. The cellular suspension was filtered out and centrifuged. The hepatocyte suspension in the concentration of 5×10^5 was introduced into Petri's dishes, their bottoms surfaced with collagen-covered glass. Applied Medium 199 contained no bovine serum but was added 0.2 mg/ml of albumen and 5 μg/ml of insulin. The dishes with glass-covered bottoms were placed in a thermostat at 37° C., aerated and added CO2. […]
Protein synthesis was assessed by [^3H]-leucin inclusion regarding the standard errors for a free marked leucin pull in the same culture. […] Radioactivity of the pull of free intracellular leucin and cellular proteins (in hyamine fraction) after adding the corresponding scintillators was measured on a radioactivity counter SL-30.
The intensity of protein synthesis was calculated by the formula: Icorr=Ii×Pav/Pi(cpm), where
Icorr—inclusion of leucin regarding the standard errors of free leucin pull, Ii—measured radioactivity of the proteins for i-culture, Pav—mean radioactivity of proteins and pull for the cultures studied in this experiment, Pi—total radioactivity of proteins and pull of the same culture.

rats = assay: Chronic toxicity, daily intramuscular injection for 6 months; format: in vivo; conditions: i.m. 1 μg/kg, 0.1 mg/kg, 1 mg/kg daily for 6 months
Description: The animals were intramuscularly injected with the preparation in the doses of 1 μg/kg, 0.1 mg/kg, 1 mg/kg in 0.5 ml of natural saline solution, daily for 6 months. Their behaviour, food and water consumption, state of hair integument and mucous membranes were noted. The rats were weighed daily during the first three months of the experiment and then once a month. In three months after the administration onset and at the experiment completion, haematological and biochemical investigations were conducted. The functions of the cardiovascular system, liver, pancreas, kidneys and adrenal glands were assessed. At the end of the tetrapeptide administration, part of the animals were subjected to a post mortem examination to assess the state of various segments of their brain and spinal marrow, heart, aorta, lungs, liver, kidneys, endocrine and immune organs.

[3] = system: liver fragments of 10–11-days old chicken embryos; assay: Development of liver explants (square index); format: cell-based; conditions: 20 ng/ml, third day of cultivation
Description: The experiments were carried out in 53 liver fragments of 10–11-days old chicken embryos. Nutrient medium for the explant cultivation consisted of 35% of Eagle's solution, 25% of foetal calf serum, 35% of Hank's solution and 5% of chicken embryonic extract. The mixture is added glucose (0.6%), insulin (0.5 unit/ml), penicillin (100 unit/ml) and glutamine (2 mM). The liver fragments were placed in this medium and cultivated in Petri's dishes in a thermostat at 36.7° C. during 48 hours. […] Square index (SI) was taken for a biological activity criterion and calculated as a correlation of the total explant square including the growth zone to the initial square of a liver fragment. The SI values were expressed per cent, the control SI value taken for 100%.

white mongrel rats = assay: Subacute toxicity, daily intramuscular injection for 90 days; format: in vivo; conditions: i.m. 1 μg/kg, 0.3 mg/kg, 3 mg/kg daily for 90 days
Description: The animals were intramuscularly injected with the preparation once a day in the doses of 1 μg/kg, 0.3 mg/kg, 3 mg/kg in 0.5 ml of natural saline solution, daily for 90 days. The control animals were administered with natural saline solution in the same amount.
The animals were under daily observation during the whole course of investigation. Their behaviour, food and water consumption, state of hair integument and mucous membranes were noted. The rats were weighed weekly. Before the preparation administration and on the 30th, 60th and 90th days thereof the morphological composition and properties of their peripheral blood were examined. Biochemical and coagulological properties of the blood were studied at the experiment completion.

[4] = system: patients with chronic persistent hepatitis; assay: Clinical application in patients with chronic persistent hepatitis; format: in vivo, human
Description: The trial was carried out on 23 patients aged 32–53 years. The disease duration constituted 10–20 years. 79% of the patients had virus hepatitis A in the case history and 11%—virus hepatitis B. The majority of the patients complained of pains in the right hypochondrium, general weakness and quick fatigability. 45% of the patients noted dyspeptic disorders. All the patients had previously received periodic conventional medications.
The control group included 12 analogous patients treated by conventional methods.
The patients' complaints were assessed in dynamics. Performed were total blood and urine counts, biochemical blood investigation (“REFLOTRON”, Boehringer Mannheim, Germany) and immune assay of the peripheral blood (definition of Ig according to Mancini). Ultrasound investigation of-the liver was carried out on an ultrasound apparatus (ALOKA, Japan). Against the background of the applied treatment 93% of the patients noted weakness elimination, improved appetite and increased workability. […] The biochemical test results were in the focus of attention during the patients' examination. They reflected aminotransferase activity, pigment- and protein-forming functions of the liver. 72% of the patients registered hyperbilirubinemia, increased level of alanine aminotransferase (ALT) and slight rise in γ-globulin fraction of the blood proteins, chiefly, due to IgM, which evidenced a certain activity of the chronic inflammatory process.

white mongrel male mice = assay: Acute toxicity according to Kerber, single intramuscular administration; format: in vivo
Excerpt: This study was designed to define the tolerable toxic doses of the preparation, assess the degree and character of pathologic alterations in various organs and systems of the organism and reveal the dependence of toxic effects on the dosage and duration of the preparation intake.
Examined were 72 white mongrel male mice weighing 20–22 g. The mice were kept in vivarium under standard regimen and fed upon standard rations. They were randomised to six equal groups, 12 mice in each. The animals were once intramuscularly administered with 0.25 ml of the preparation in the doses of 1 mg/kg, 2 mg/kg, 3 mg/kg, 4 mg/kg and 5 mg/kg (several thousand times exceeding the therapeutic dose recommended for clinical trials). The control animals received the same amount of natural saline solution.
No alterations in their general state, behaviour, motor activity, hair and skin integument, physiological discharge were registered.

[5] = Day 5, 1 μg i.m. for 5 days accompanying CCl4 impact
[6] = Day 20, 1 μg i.m. daily for 15 days after CCl4 impact
[7] = Day 20, tetrapeptide after CCl4 impact
[8] = after treatment, i.m. once a day 0.01–100 μg/kg, 10–40 days
[9] = against the background of the applied treatment

## O=P1(N(CCCl)CCCl)NCCCO1 (centres unmarked) [Cyclophosphamide, reference compound]
hepatoma-27
  Mean life span (days after the tumour transplantation): 61.50 ± 4.58 days
  Tumour growth: stable decrease in the tumour growth rate
  Animals with complete tumour resolution: three

## C[C@H](NC(=O)[C@H](CC(=O)O)NC(=O)[C@H](CCC(=O)O)NC(=O)[C@@H](N)CCCCN)C(=O)O [Lys-Glu-Asp-Ala tetrapeptide, lysyl-glutamyl-aspartyl-alanine] (H-KEDA-OH)
[1]; [5]
  ALT: 35.3 ± 3.8 international units per ml
  AST: 35.6 ± 4.3 international unit per ml
  Cholesterol: 4.1 ± 0.25 mm/l
  Protein (blood): 77.8 ± 3.7 g/L
  Total bilirubin: 12.5 ± 2.1 µmol/L
[1]; Day 5, tetrapeptide accompanying CCl4 impact
  Hepatocytes with fat inclusions: 49.8 ± 6.3 %
[1]; [6]
  ALT: 5.3 ± 0.98 international units per ml
  AST: 11.3 ± 1.9 international unit per ml
  Cholesterol: 4.2 ± 0.35 mm/l
  Protein (blood): 83.4 ± 3.4 g/L
  Total bilirubin: 14.8 ± 3.2 µmol/L
[1]; [7]
  Hepatocytes with fat inclusions: 10.0 ± 2.1 %
  Hepatocytes with glycogen synthesis: 90.0 ± 8.1 %
[1]; Day 20, tetrapeptide for 15 days after CCl4 impact
  Hepatocytes with negative staining for fat: 90%
[1]; tetrapeptide during 15 days after the end of CCl4 impact
  Concentration of protein, bilirubin, cholesterol and aminotransferases in the blood: restored to the normal values
[2]; hepatocytes of older rats
  Protein synthesis oscillation amplitude: increased significantly
[2]; rats aged 4, 8 and 18 months, strongest effect in cells of older animals
  Level of protein synthesis in hepatocytes: raised the level of protein synthesis
rats
  Pathologic alterations (general state, blood indices, organs, liver and kidney functions), chronic toxicity: no pathologic alterations
hepatoma-27; 30th day, 1 μg/kg s.c. daily for 10 days
  Tumour size relative to controls (times less): 2.5 times
hepatoma-27
  Mean life span (days after the tumour transplantation): 68.00 ± 1.23 days
  Tumour growth: stable inhibition of the tumour growth
  Animals with complete tumour resolution: Three
hepatoma-27; tetrapeptide from the 39th day after transplantation, cyclophosphamide only on the 43rd day
  Proportion of ulcer-bearing animals: significant decrease in the proportion of ulcer-bearing animals
[3]
  Increase in the explant square index (SI) compared to control: 24%
White mongrel rats
  Pathologic alterations (general state, blood indices, organs, liver and kidney functions), subacute toxicity: no pathologic alterations
[4]; after treatment
  IgA: 2.30 ± 0.07 g/L
  IgG: 13.9 ± 0.9 g/L
  IgM: 1.50 ± 0.03 g/L
[4]; [8]
  ALT (peripheral blood): 40.8 ± 3.1 mmol/L
  AST (peripheral blood): 38.5 ± 2.4 mmol/L
  Bilirubin (peripheral blood): 21.7 µM
  Cholesterol (peripheral blood): 5.1 ± 0.3 mmol/L
  GGT (peripheral blood): 41.6 ± 4.5 mmol/L
  Triglycerides (peripheral blood): 2.2 ± 0.2 mmol/L
[4]; [9]
  Patients noting weakness elimination, improved appetite and increased workability: 93%
  Patients with significantly lower intensity of the pain syndrome: 51%
White mongrel male mice; doses several thousand times exceeding the therapeutic one
  Acute toxic reactions: does not entail any acute toxic reactions
White mongrel male mice; single intramuscular 1, 2, 3, 4, 5 mg/kg, 72 hours and 14 days
  Death of animals: none of the animals died
